Legend:
Ebola virus (Zaire 76) = details: 5 μg/ml; FIG. 17
[1] = test system: Herpes simplex virus type 1, ATCC VR-733, Strain F(1); test: Virucidal suspension test of solutions A-17 and B-17 against HSV-1, Vero indicator cells (Example 17); assay type: cell-based
Procedure: (§1) A suspension of virus was exposed to the use dilutions of the products. At the each pre-determined exposure time an aliquot was removed, neutralized by serial dilution, and assayed for the presence of virus. The virus controls, cytotoxicity controls, and neutralization controls were assayed in parallel. Antiviral properties of the solutions were evaluated and compared at the specified concentrations and time intervals.
Dilutions: FS (undiluted) defined as 1 ml test substance+0 ml PBS
• 1:10 defined as 1 ml test substance+9 ml PBS • 1:100 defined as 1 ml of the 1:10 dilution+9 ml PBS Virus: Herpes simplex virus type 1, ATCC VR-733, Strain F(1) Exposure Time: 15 minutes and 60 minutes Exposure Temperature: Room temperature (22.0° C.) Organic Soil Load: 1% fetal bovine serum Test Medium: Minimum Essential Medium (MEM) supplemented with 5% (v/v) heat-inactivated fetal bovine serum (FBS), 10 μg/ml gentamicin, 100 units/ml penicillin, and 2.5 μg/ml amphotericin B. Indicator Cell Cultures: Vero Results

[2] = test system: Herpes simplex virus type 1, ATCC VR-733, Strain F(1); test: Virucidal suspension test of solutions A-18 to D-18 against HSV-1, Vero indicator cells (Example 18); assay type: cell-based; details: for viral inhibitory effect: comparable concentrations
Procedure: as §1, with “the end of the” for “the each pre-determined”, “exposure time,” for “exposure time”
Dilutions: 1:5 defined as 1 ml test substance+4 parts sterile PBS=0.2 mg/ml
• 1:10 defined as 1 ml test substance+9 parts sterile PBS=0.1 mg/ml • 1:15 defined as 1 ml test substance+14 parts sterile PBS=0.07 mg/ml • 1:20 defined as 1 ml test substance+19 parts sterile PBS=0.05 mg/ml • 1:25 defined as 1 ml test substance+24 parts sterile PBS=0.04 mg/ml Virus: Herpes simplex virus type 1, ATCC VR-733, Strain F(1) Exposure Time: 30 minutes Exposure Temperature: Room temperature (22.0° C.) Organic Soil Load: 1% fetal bovine serum Test Medium: Minimum Essential Medium (MEM) supplemented with 5% (v/v) heat-inactivated fetal bovine serum (FBS), […], 100 units/ml penicillin, and 2.5 μg/ml amphotericin B. Indicator Cell Cultures: Vero Results
A similar experiment was run with 15 minutes contact time. The graphical representation can be seen in FIG. 6.

[3] = FS (undiluted), 15 minutes exposure, 22.0° C., stock A-17 1 mg/mL, B-17 10 mg/mL
[4] = FS (undiluted), 60 minutes exposure
[5] = dilution 1:10, 15 minutes exposure
[6] = dilution 1:10, 60 minutes exposure
[7] = dilution 1:100, 15 minutes exposure
[8] = dilution 1:100, 60 minutes exposure
[9] = dilution 1:5 = 0.2 mg/ml, 30 minutes exposure, 22.0° C.
[10] = dilution 1:10 = 0.1 mg/ml, 30 minutes exposure
[11] = dilution 1:15 = 0.07 mg/ml, 30 minutes exposure
[12] = dilution 1:20 = 0.05 mg/ml, 30 minutes exposure
[13] = dilution 1:25 = 0.04 mg/ml, 30 minutes exposure
[14] = 15 minutes contact time, FIG. 6

Substance	% Reduction [2, 9] [%]	Log10 Reduction [2, 9] [log10]	% Reduction [2, 10]	Log10 Reduction [2, 10]	% Reduction [2, 11]	Log10 Reduction [2, 11]	% Reduction [2, 12]	Log10 Reduction [2, 12]	% Reduction [2, 13]	Log10 Reduction [2, 13]	viral inhibitory effect [2, 14]	also measured
C12-alkyl(ethylbenzyl) dimethylammonium chloride												deactivation of Ebola virus (Ebola virus (Zaire 76)): Complete deactivation
benzalkonium chloride [Formulation B-17]												% reduction in viral titer [1, 3]: ≥ 99.99%; log10 reduction in viral titer [1, 3]: ≥ 4.00 log10; % reduction in viral titer [1, 4]: ≥ 99.98%; log10 reduction in viral titer [1, 4]: ≥ 3.75 log10; % reduction in viral titer [1, 5]: ≥ 99.999%; log10 reduction in viral titer [1, 5]: ≥ 5.00 log10; % reduction in viral titer [1, 6]: ≥ 99.998%; log10 reduction in viral titer [1, 6]: ≥ 4.75 log10; % reduction in viral titer [1, 7]: 90.0%; log10 reduction in viral titer [1, 7]: 1 log10; % reduction in viral titer [1, 8]: 99.7%; log10 reduction in viral titer [1, 8]: 2.5 log10
C14-alkyl(ethylbenzyl) dimethylammonium chloride [Formulation B-18]	94.4	1.24	43.8%	0.25 log10	No Reduction	No Reduction	No Reduction	No Reduction	No Reduction	No Reduction		
C12-alkyl(ethylbenzyl) dimethylammonium chloride [Formulation A-18]	≥99.997	≥4.5	99.4%	2.25 log10	98.2%	1.75 log10	96.8%	1.5 log10	90.0%	1 log10	complete inactivation	% Reduction [2, 14]: 99.997%; log10 reduction [2, 14]: 6.75 log10
benzalkonium chloride [Formulation C-18, reference compound]	43.8	0.25	No Reduction	No Reduction	No Reduction	No Reduction	No Reduction	No Reduction	No Reduction	No Reduction	no viral inhibitory effect	
